Measurements reported in ChEMBL document CHEMBL1201862, “PubChem BioAssay data set” (2004).
Calls of active or inactive are those of the source. Cut-off read from the data, not from the text of the source, for most assays here: actives have a measured EC50 and inactives only a lower limit.

Test system: not listed separately
Experiment: NIH-3T3 fibroblast cytotoxicity, dose response, cytotoxicity control, cell-based, fluorescence, Alamar Blue, secondary assay (AID 2327);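 note: NIH-3T3 mouse fibroblasts cultured with fluconazole at 8 µg/mL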
Format: functional
Settings: not given

Compound	EC50
O=C(O)c1cnc(-c2ccccc2)nc1Sc1ccc(Cl)cc1Cl	57.8 µM (active)
COc1cccc2c1Oc1ncccc1N(C(=O)CCC(=O)NCc1ccccc1F)C2	19.4 µM (inconclusive)
CC[n+]1c(/C=C/N(C)c2ccccc2)oc2ccccc21	> 150 µM (inactive)
Nc1ccccc1-[n+]1c(-c2ccccc2)cc(-c2ccccc2)cc1-c1ccccc1.[O-][Cl+3]([O-])([O-])[O-]	> 150 µM (inactive)
O=C(NNc1ccc([N+](=O)[O-])cc1)c1ccccc1Cl	> 150 µM (inactive)
CCCNC(=O)C12CCC(C)(c3nc4cc(C)c(C)cc4nc31)C2(C)C (stereo not drawn)	113 µM (active)
O=S(=O)(Nc1nc(-c2ccccc2)cs1)c1cc(Cl)ccc1Cl	> 160 µM (inactive)

Test system: not listed separately
Experiment: viability of uninfected HEp-2 cells – cell-based, HTS, cytotoxicity control for RSV inhibitor project, dose response (AID 2410)
Format: functional
Settings: human respiratory syncytial virus

Compound	CC50
Cc1ccc(-c2nn(-c3ccccc3)cc2/C=N/O)cc1	27.9 µM (active)

Test system: not listed separately
Experiment: Luminescence Cell-Based Dose Confirmation HTS to Identify Activators of 5'UTR Stem-Loop Driven Alpha-Synuclein mRNA Translation in H4 Neuroglioblastoma Cells. [Related pubchem assays: 1829 (Project Summary), 1814 (Primary HTS)]
Format: functional
Settings: not given

Compound	EC50
CCN1CCN(C(CNC(=O)c2ccc3c(c2)OCO3)c2cccnc2)CC1 (stereo not drawn)	> 120 µM (not active)
COc1ccc(N2C(S)=NC3N2C(S)=NC3(C)c2ccccc2)cc1 (stereo not drawn)	18.1 µM (active)
CSc1nsc(SCC(=O)Nc2ccc(C(C)=O)cc2)n1	4.49 µM (active)
CC(C)(C)C1CCC(OC(=O)CN2CCOCC2)CC1 (stereo not drawn)	13.5 µM (active)
CN(C)c1ccc(N=Nc2ccccc2C(=O)OCC(=O)N(C)C2CCCCC2)cc1	85.5 µM (active)
CN1C(=O)C2C=CC1C1C(=O)N(c3ccccc3)C(=O)C21 (stereo not drawn)	0.128 µM (active)
CCO[C@@H]1OC(C(=O)NCc2nc3ccccc3[nH]2)=C[C@H](C2CC2)[C@H]1CCCO	> 120 µM (not active)
CCOC(=O)C1CCN(C(=O)CN2C(=O)COc3ccc(C(C)(C)C)cc32)CC1	> 120 µM (not active)
COC(=O)c1cn(CCOc2ccccc2)c2ccccc12	6.67 µM (active)

Test system: not listed separately
Experiment: Luminescence Cell-Based Dose Response HTS to Identify Activators of Luciferase Translation or Activity in H4 […] Cells. [Related pubchem assays: 1829 (Project Summary), 1814 (Primary HTS)]
Format: functional
Settings: not given

Compound	EC50
CCN1CCN(C(CNC(=O)c2ccc3c(c2)OCO3)c2cccnc2)CC1 (stereo not drawn)	11.5 µM (active)
COc1ccc(N2C(S)=NC3N2C(S)=NC3(C)c2ccccc2)cc1 (stereo not drawn)	35 µM (active)
CSc1nsc(SCC(=O)Nc2ccc(C(C)=O)cc2)n1	23.5 µM (active)
CC(C)(C)C1CCC(OC(=O)CN2CCOCC2)CC1 (stereo not drawn)	8.04 µM (active)
CN(C)c1ccc(N=Nc2ccccc2C(=O)OCC(=O)N(C)C2CCCCC2)cc1	84.2 µM (active)
CN1C(=O)C2C=CC1C1C(=O)N(c3ccccc3)C(=O)C21 (stereo not drawn)	0.45 µM (active)
CCO[C@@H]1OC(C(=O)NCc2nc3ccccc3[nH]2)=C[C@H](C2CC2)[C@H]1CCCO	> 120 µM (not active)
CCOC(=O)C1CCN(C(=O)CN2C(=O)COc3ccc(C(C)(C)C)cc32)CC1	> 120 µM (not active)
COC(=O)c1cn(CCOc2ccccc2)c2ccccc12	10.2 µM (active)

Test system: Streptococcus sp. 'group A'
Experiment: Streptococcus pyogenes SK(-)GAS viability under kanamycin – luminescence, BacTiterGlo, confirmation, counter-screen for streptokinase expression inhibitor project, dose response (AID 1900)
Format: functional, organism-based
Settings: not given

Compound	EC50
O=C(O)c1cnc(-c2ccccc2)nc1Sc1ccc(Cl)cc1Cl	15.4 µM (active)
Cc1ccc(-c2nn(-c3ccccc3)cc2/C=N/O)cc1	> 150 µM (not active)

Test system: H4
Experiment: Luminescence Cell-Based Dose Response HTS to Identify Activators of 5'UTR Stem-Loop Driven Prion Protein mRNA Translation in H4 Neuroglioblastoma Cells. [Related pubchem assays: 1829 (Project Summary), 1814 (Primary HTS)]
Format: functional
Settings: Homo sapiens

Compound	EC50
CCN1CCN(C(CNC(=O)c2ccc3c(c2)OCO3)c2cccnc2)CC1 (stereo not drawn)	15.6 µM (active)
COc1ccc(N2C(S)=NC3N2C(S)=NC3(C)c2ccccc2)cc1 (stereo not drawn)	53.5 µM (active)
CSc1nsc(SCC(=O)Nc2ccc(C(C)=O)cc2)n1	6.18 µM (active)
CC(C)(C)C1CCC(OC(=O)CN2CCOCC2)CC1 (stereo not drawn)	19.6 µM (active)
CN(C)c1ccc(N=Nc2ccccc2C(=O)OCC(=O)N(C)C2CCCCC2)cc1	51.8 µM (active)
CN1C(=O)C2C=CC1C1C(=O)N(c3ccccc3)C(=O)C21 (stereo not drawn)	0.209 µM (active)
CCO[C@@H]1OC(C(=O)NCc2nc3ccccc3[nH]2)=C[C@H](C2CC2)[C@H]1CCCO	> 120 µM (not active)
CCOC(=O)C1CCN(C(=O)CN2C(=O)COc3ccc(C(C)(C)C)cc32)CC1	> 120 µM (not active)
COC(=O)c1cn(CCOc2ccccc2)c2ccccc12	12.9 µM (active)

Molecular target: T1, Streptokinase A (Streptococcus pyogenes serotype M1, UniProt P10520)
T1 sequence (P10520 whole entry): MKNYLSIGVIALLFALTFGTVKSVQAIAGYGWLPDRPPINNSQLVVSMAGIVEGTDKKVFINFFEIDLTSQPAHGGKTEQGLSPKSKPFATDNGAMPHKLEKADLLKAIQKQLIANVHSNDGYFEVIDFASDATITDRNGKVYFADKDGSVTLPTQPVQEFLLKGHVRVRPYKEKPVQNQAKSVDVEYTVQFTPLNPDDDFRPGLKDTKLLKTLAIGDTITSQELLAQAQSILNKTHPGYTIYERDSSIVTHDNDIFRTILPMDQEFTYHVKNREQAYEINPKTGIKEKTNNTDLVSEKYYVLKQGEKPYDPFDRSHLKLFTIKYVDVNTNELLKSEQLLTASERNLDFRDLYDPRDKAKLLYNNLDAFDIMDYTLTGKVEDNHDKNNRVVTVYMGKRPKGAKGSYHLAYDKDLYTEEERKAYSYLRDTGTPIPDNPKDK
Experiment: viability-normalized secreted streptokinase activity reduction – plasminogen activation absorbance, OD405, dose response (AID 1914);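 note: secreted streptokinase activity via plasminogen activation per viability signal from cell pellet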
Format: functional, Streptococcus pyogenes M1 GAS
Settings: not given

Compound	EC50
O=C(O)c1cnc(-c2ccccc2)nc1Sc1ccc(Cl)cc1Cl	18.8 µM (active)
Cc1ccc(-c2nn(-c3ccccc3)cc2/C=N/O)cc1	> 150 µM (not active)

Test system: not listed separately
Experiment: fluconazole-exposed Candida albicans growth modulators – fluorescence, retest, confirmation (AID 2467)
Format: functional, cell-based
Settings: not given

Compound	EC50
O=C(O)c1cnc(-c2ccccc2)nc1Sc1ccc(Cl)cc1Cl	0.13 µM (active)
COc1cccc2c1Oc1ncccc1N(C(=O)CCC(=O)NCc1ccccc1F)C2	> 38 µM (not active)
CC[n+]1c(/C=C/N(C)c2ccccc2)oc2ccccc21	3.58 µM (active)
Nc1ccccc1-[n+]1c(-c2ccccc2)cc(-c2ccccc2)cc1-c1ccccc1.[O-][Cl+3]([O-])([O-])[O-]	0.843 µM (active)
O=C(NNc1ccc([N+](=O)[O-])cc1)c1ccccc1Cl	> 38 µM (not active)
O=S(=O)(Nc1nc(-c2ccccc2)cs1)c1cc(Cl)ccc1Cl	1.8 µM (active)

Test system: not listed separately
Experiment: Trypanosoma cruzi growth suppression in host cells – NIH3T3 host cells, beta-gal luminescence, confirmation (AID 2044);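 note: intracellular parasites grown in NIH/3T3 mouse fibroblasts as host cells; luminescent beta-galactosidase reporter signal from transgenic T. cruzi replicating inside host cells; inhibitors lower the luminescence signal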
Format: functional, cell-based
Settings: not given

Compound	EC50
CC[n+]1c(/C=C/N(C)c2ccccc2)oc2ccccc21	0.258 µM (active)
Nc1ccccc1-[n+]1c(-c2ccccc2)cc(-c2ccccc2)cc1-c1ccccc1.[O-][Cl+3]([O-])([O-])[O-]	0.114 µM (active)

Test system: not listed separately
Experiment: NIH3T3 cell viability loss – ATP luminescence, mouse fibroblasts, counter-screen, dose response (AID 2010);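 note: cells exposed to compound for about 90 hours before reading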
Format: functional, cell-based
Settings: not given

Compound	EC50
CC[n+]1c(/C=C/N(C)c2ccccc2)oc2ccccc21	16.9 µM (active)
Nc1ccccc1-[n+]1c(-c2ccccc2)cc(-c2ccccc2)cc1-c1ccccc1.[O-][Cl+3]([O-])([O-])[O-]	> 60 µM (not active)

Test system: Streptococcus
Experiment: GAS UMAA2166 growth inhibition – luminescence, BacTiterGlo, counter-screen for streptokinase expression inhibitor project, dose response (AID 1915);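 note: potency for reduction of bacterial viability or growth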
Format: functional, organism-based
Settings: not given

Compound	EC50
O=C(O)c1cnc(-c2ccccc2)nc1Sc1ccc(Cl)cc1Cl	> 150 µM (not active)
Cc1ccc(-c2nn(-c3ccccc3)cc2/C=N/O)cc1	> 150 µM (not active)

Molecular target: T2, Corticotropin-releasing factor receptor 2/Corticotropin-releasing factor-binding protein (Homo sapiens, UniProt P24387+Q13324)
T2 sequence (Q13324 whole entry): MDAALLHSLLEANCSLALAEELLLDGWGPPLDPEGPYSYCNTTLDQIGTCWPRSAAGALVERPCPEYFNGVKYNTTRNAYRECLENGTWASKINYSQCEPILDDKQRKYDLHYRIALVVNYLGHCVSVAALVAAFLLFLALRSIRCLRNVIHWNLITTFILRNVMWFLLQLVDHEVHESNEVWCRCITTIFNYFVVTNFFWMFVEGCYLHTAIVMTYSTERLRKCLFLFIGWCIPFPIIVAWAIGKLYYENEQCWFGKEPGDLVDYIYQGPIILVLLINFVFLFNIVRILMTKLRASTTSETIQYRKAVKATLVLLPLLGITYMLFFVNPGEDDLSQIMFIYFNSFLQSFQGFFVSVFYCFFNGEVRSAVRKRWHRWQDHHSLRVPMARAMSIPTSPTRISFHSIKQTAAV
T2 sequence (P24387 whole entry): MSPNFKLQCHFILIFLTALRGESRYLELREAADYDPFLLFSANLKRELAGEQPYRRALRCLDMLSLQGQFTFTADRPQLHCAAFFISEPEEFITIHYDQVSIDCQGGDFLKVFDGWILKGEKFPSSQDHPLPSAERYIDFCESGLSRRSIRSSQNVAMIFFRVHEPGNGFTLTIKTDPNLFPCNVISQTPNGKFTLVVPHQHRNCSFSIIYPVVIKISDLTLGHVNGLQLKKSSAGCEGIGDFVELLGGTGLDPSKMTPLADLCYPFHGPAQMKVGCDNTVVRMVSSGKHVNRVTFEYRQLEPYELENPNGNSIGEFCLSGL
Experiment: Dose Response confirmation of uHTS hits for small molecule antagonists of the CRF-binding protein and CRF-R2 receptor complex.
Format: functional
Settings: read-out: IC50_Mean

Compound	IC50
O=C(O)c1cnc(-c2ccccc2)nc1Sc1ccc(Cl)cc1Cl	1.85 µM (active)

Molecular target: T2, Corticotropin-releasing factor receptor 2/Corticotropin-releasing factor-binding protein
Experiment: activators of CRF receptor 2 with binding protein – uHTS hits, confirmation (AID 602473)
Format: functional
Settings: read-out: EC50_Mean

Compound	EC50
O=C(O)c1cnc(-c2ccccc2)nc1Sc1ccc(Cl)cc1Cl	> 53 µM (inactive)
